The values below come from patent publication US9029409B2, “Isoxazolines as therapeutic agents” (AbbVie Inc., priority 2011, dated 2015).

SMILES strings stand for the structures.

For this experiment, the target named is T1, recombinant human MMP13 catalytic domain (CD) (Homo sapiens, UniProt P45452).
T1 construct: catalytic domain (CD) construct encompassing residues 20-274 (SWISS-PROT P45452); made in house
Briefly: MMP-13 catalytic domain FRET enzyme assay. It is filed as biochemical. The note with it: recombinant human MMP-13 catalytic domain. The protocol:
A recombinant human MMP13 catalytic domain (CD) construct encompassing residues 20-274 (SWISS-PROT P45452) was generated by synthetic gene methods and bacterial expression. MMP-13 activity assays were performed using the recombinant human MMP-13 CD at a 0.4 nM concentration and the fluorogenic substrate (QXL-520)-K-P-L-A˜Nva-Dap(5-FAM)-A-R-NH2 (Anaspec cat #60554-01, San Jose, Calif.) at a 0.25 μM concentration in assay buffer containing […], pH 7.5, 10 mM CaCl2, 150 mM NaCl, 0.05% Brij 35. The assay is based on the cleavage of this substrate by MMP-13, resulting in decrease of FRET between the donor-acceptor pair and subsequent fluorescence enhancement. The assays were carried out in 384-well plates (Greiner cat #781076, Germany) for 60 min at RT. After the incubation period, the reaction was quenched by the addition of 5 μL of 500 mM EDTA (100 mM final concentration) (Rankem, Cat #E0120, India) mixed well and the rate of substrate hydrolysis was determined by monitoring change in fluorescence at excitation and emission wavelengths of 485 nm and 535 nm respectively. Fluorescence was measured on a Victor V5 plate reader (Perkin Elmer, Turku, Finland). The test compounds used for assessing the potency of inhibition of MMP-13 activity were dissolved in DMSO (final DMSO concentration in the assay was 5%). Selected compounds were also screened against full length MMP13 (R&D Systems (Cat. No. 511-MM-010), Minneapolis, Minn.) at 2 nM concentration using the same fluorogenic substrate mentioned above. The enzyme was activated using 1 m Mp-aminophenylmercuric acetate—APMA (Cat #A-9563, Sigma, Germany).
Data analysis: The percent inhibition of the enzyme activity in presence of test compounds were calculated using the equation, percent (%) Inhibition=100−[(Fi/Fc)*100] where Fc is the fluorescence corresponding to initial enzyme activity and Fi is the fluorescence corresponding to the enzyme activity in presence of inhibitor. The IC50 values were calculated by fitting the dose-response data to a sigmoidal curve fitting equation using Graph Pad prism software (Version 5, La Jolla, Calif.).
MMP13 Catalytic Domain (CD) Potency of the Described Examples Determined Using Time Resolved Fluorescence Resonance Energy Transfer (FRET) Enzyme Assays: […]

As to `COc1ccc(CNC(=O)c2cc(C3=NOC(c4ccc(OC)cc4)C3)nc(C)n2)cc1` (centres unmarked), the IC50 lay in the range of 0.01 to 0.1 µM. `COc1ccc(CNC(=O)c2cc(C3=NOC(c4ccc(N5CCOCC5)cc4)C3)nc(C)n2)cc1` (centres unmarked): the IC50 lay in the range of 0.01 to 0.1 µM.

On to `COc1ccc(CNC(=O)c2cc(C3=NOC(c4ccc(N5CCCCC5)cc4)C3)nc(C)n2)cc1` (centres unmarked), for which the half-inhibitory concentration (IC50) lay within 0.1 to 1 µM.

Regarding `Cc1nc(C(=O)NCc2ccc(F)c(C)c2)cc(C2=NOC(C3CCN(S(C)(=O)=O)CC3)C2)n1` (centres unmarked), the IC50 is < 0.01 µM. For the compound `Cc1nc(C(=O)NCc2ccc(F)c(C)c2)cc(C2=NOC(C3CCN(C(=O)CO)CC3)C2)n1` (centres unmarked), the concentration for half-maximal inhibition (IC50) was in the range of 0.01 to 0.1 µM. With `COc1cc(CNC(=O)c2cc(C3=NOC(c4cnccn4)C3)nc(C)n2)ccc1F` (centres unmarked), the IC50 was in the range of 0.01 to 0.1 µM. With `COc1cc(CNC(=O)c2cc(C3=NOC(C4CCN(C(=O)C(C)(C)O)CC4)C3)nc(C)n2)ccc1F` (centres unmarked), the IC50 is 0.01 to 0.1 µM. For the compound `COc1cc(CNC(=O)c2cc(C3=NOC(C4CCN(S(=O)(=O)C5CC5)CC4)C3)nc(C)n2)ccc1F` (centres unmarked), the IC50 lay within 0.01 to 0.1 µM. In the case of `Cc1nc(C(=O)NCc2ccc(F)c(F)c2)cc(C2=NOC(c3ccccn3)C2)n1` (centres unmarked), the IC50 was 0.01 to 0.1 µM. On to `CC(=O)N1CCC(C2CC(c3cc(C(=O)NCc4ccc(F)c(F)c4)nc(C)n3)=NO2)CC1` (centres unmarked), for which the IC50 fell in the range of 0.01 to 0.1 µM. As to `Cc1nc(C(=O)NCc2ccc(F)c(F)c2)cc(C2=NOC(C3CCN(S(C)(=O)=O)CC3)C2)n1` (centres unmarked), the IC50 lay within 0.01 to 0.1 µM. `Cc1nc(C(=O)NCc2ccc(F)c(F)c2)cc(C2=NOC(C3CCN(C(=O)CO)CC3)C2)n1` (centres unmarked): the IC50 was in the range of 0.01 to 0.1 µM.

For the compound `CCS(=O)(=O)N1CCC(C2CC(c3cc(C(=O)NCc4ccc(F)c(OC)c4)nc(C)n3)=NO2)CC1` (centres unmarked), the IC50 is < 0.01 µM. Take `COc1cc(CNC(=O)c2cc(C3=NOC(C4CCN(C(=O)C(C)C)CC4)C3)nc(C)n2)ccc1F` (centres unmarked): the IC50 lay within 0.01 to 0.1 µM. To `Cc1nc(C(=O)NCc2ccc(F)cc2)cc(C2=NOC(c3ccccn3)C2)n1` (centres unmarked) belongs 0.01 to 0.1 µM.

Consider `CC(=O)N1CCC(C2CC(c3cc(C(=O)NCc4ccc(F)c(Cl)c4)nc(C)n3)=NO2)CC1` (centres unmarked), for which the IC50 was 0.01 to 0.1 µM. On to `Cc1nc(C(=O)NCc2ccc(F)c(Cl)c2)cc(C2=NOC(C3CCN(C(=O)CO)CC3)C2)n1` (centres unmarked), for which the concentration for half-maximal inhibition (IC50) was 0.01 to 0.1 µM. For `COc1cccc(CNC(=O)c2cc(C3=NOC(c4ccccn4)C3)nc(C)n2)c1` (centres unmarked), the IC50 was 0.01 to 0.1 µM. For the compound `CC(=O)N1CCC(C2CC(c3cc(C(=O)NCc4ccc(F)cc4)nc(C)n3)=NO2)CC1` (centres unmarked), the IC50 lay in the range of 0.01 to 0.1 µM. In the case of `Cc1nc(C(=O)NCc2ccc(F)cc2)cc(C2=NOC(C3CCN(S(C)(=O)=O)CC3)C2)n1` (centres unmarked), the IC50 was < 0.01 µM. Take `Cc1nc(C(=O)NCc2ccc(F)cc2)cc(C2=NOC(C3CCN(C(=O)CO)CC3)C2)n1` (centres unmarked): the 50% inhibitory concentration (IC50) is 0.01 to 0.1 µM. Take `COc1cccc(CNC(=O)c2cc(C3=NOC(C4CCN(C(C)=O)CC4)C3)nc(C)n2)c1` (centres unmarked): the concentration for half-maximal inhibition (IC50) lay within 0.01 to 0.1 µM.

`COc1cccc(CNC(=O)c2cc(C3=NOC(C4CCN(S(C)(=O)=O)CC4)C3)nc(C)n2)c1` (centres unmarked): the IC50 is < 0.01 µM. With `COc1cccc(CNC(=O)c2cc(C3=NOC(C4CCN(C(=O)CO)CC4)C3)nc(C)n2)c1` (centres unmarked), the concentration for half-maximal inhibition (IC50) was in the range of 0.01 to 0.1 µM. To `COc1cc(CNC(=O)c2cc(C3=NOC(C4CCN(C(=O)CN(C)C)CC4)C3)nc(C)n2)ccc1F` (centres unmarked) belongs 0.01 to 0.1 µM. `COc1cc(CNC(=O)c2cc(C3=NOC(C4CCN(S(=O)(=O)C(C)C)CC4)C3)nc(C)n2)ccc1F` (centres unmarked): the half-maximal inhibitory concentration (IC50) was < 0.01 µM. Next, `COCC(=O)N1CCC(C2CC(c3cc(C(=O)NCc4ccc(F)c(OC)c4)nc(C)n3)=NO2)CC1` (centres unmarked): 0.01 to 0.1 µM; `COc1cc(CNC(=O)c2cc(C3=NOC(C4CCN(C(=O)C5CCC5)CC4)C3)nc(C)n2)ccc1F` (centres unmarked): 0.01 to 0.1 µM. For the compound `COc1cc(CNC(=O)c2cc(C3=NOC(C4CCN(C(=O)CNS(C)(=O)=O)CC4)C3)nc(C)n2)ccc1F` (centres unmarked), the IC50 lay within 0.01 to 0.1 µM.

On to `COc1cc(CNC(=O)c2cc(C3=NOC(c4ccc(C#N)cn4)C3)nc(C)n2)ccc1F` (centres unmarked), for which the IC50 is < 0.01 µM. As for `COc1cc(CNC(=O)c2cc(C3=NOC(c4ccc(CO)cn4)C3)nc(C)n2)ccc1F` (centres unmarked), the IC50 is < 0.01 µM. For the compound `CNC(=O)c1ccc(C2CC(c3cc(C(=O)NCc4ccc(F)c(OC)c4)nc(C)n3)=NO2)nc1` (centres unmarked), the IC50 lay in the range of 0.01 to 0.1 µM.
